Here are results for five molecules from publication PMC11555678, “Improved Broad Spectrum Antifungal Drug Synergies with Cryptomycin, a Cdc50-Inspired Antifungal Peptide” (ACS Infectious Diseases, 2024).

The structures appear in SMILES notation. Values after ≈ are worked out from the molar mass of the structure shown. Where two headings read alike, the source gives them in different places. Square brackets hold non-standard residues; d marks the D form. Peptide text beside a SMILES is read from it. * marks the point of attachment. Myristoyl = CCCCCCCCCCCCCC(=O)*; Orn = NCCC[C@H](N)C(=O)O A value given as a limit tells only on which side of the number the result lay.

Experiment [1] relates to C. neoformans apt2Δ. The experiment is described as follows: microbe, parasite or virus in culture. The experiment is classed as cell-based, Cryptococcus neoformans. Conditions: 48 h. As to the method: (§1) All microdilution assays with fungi were carried out in accordance with CLSI protocols from M27 for yeasts and M38 for filamentous fungi, respectively, unless otherwise specified.[64],[65] Briefly, 96-well plates were charged with RPMI1640 media, with operating volume in the first column, 200 μL, and half operating volume, 100 μL, in the remaining wells. Drug stock solution in DMSO was aliquoted into the first well in each row. Half of the volume in the dosed well was serially diluted 2-fold until column 11. Column 11 was used as the negative growth control, and column 12 was used as the positive growth control. ON yeast cultures in YPD were washed twice in DD-H2O, resuspended in PBS, and adjusted to 5000 cfu/mL in RPMI. The 96-well plate was inoculated with 100 μL aliquots of cell suspension per well. Plates were incubated at 37 °C for 2 days.

Experiment [2] relates to C. neoformans apt3Δ. The experiment is described as follows: microbe, parasite or virus in culture. The experiment is classed as cell-based, Cryptococcus neoformans. The following applies: 48 h. As to the method: as §1
For experiment [3], the system named is C. neoformans apt4Δ. The experiment is described as follows: microbe, parasite or virus in culture. Conditions: 48 h. It is filed as cell-based, Cryptococcus neoformans. As to the method:
as §1

Experiment [4] relates to C. neoformans Crm1^OE. The experiment is described as follows: microbe, parasite or virus in culture. It is filed as cell-based, Cryptococcus neoformans. The following applies: 48 h. As to the method: as §1
Experiment [5] relates to C. neoformans MRL862. The experiment is described as follows: microbe, parasite or virus in culture. The experiment is classed as cell-based, Cryptococcus neoformans. As to the method: as §1
The test system of experiment [6] is C. neoformans apt1Δ. The experiment is described as follows: microbe, parasite or virus in culture. The experiment is classed as cell-based, Cryptococcus neoformans. The following applies: 48 h. As to the method:
as §1

The test system of experiment [7] is C. neoformans H99. The experiment is described as follows: microbe, parasite or virus in culture. It is filed as cell-based, Cryptococcus neoformans. As to the method:
as §1

For experiment [8], the system named is C. neoformans crm1Δ. The experiment is described as follows: microbe, parasite or virus in culture. It is filed as cell-based, Cryptococcus neoformans. The following applies: 48 h. As to the method:
as §1

Experiment [9] concerns C. neoformans cdc50Δ. The experiment is described as follows: microbe, parasite or virus in culture. The following applies: for MIC: 48 h. It is filed as cell-based, Cryptococcus neoformans. As to the method: as §1
The test system of experiment [10] is C. neoformans H99. Conditions: Cn wild-type, previous study; cited from earlier work.
Experiment [11] concerns C. neoformans H99. It is filed as cell-based, Cryptococcus neoformans. Conditions: 2× MIC, by 2 h, no rebound by 8 h; RPMI1640, 30 °C, 225 rpm, 2 million cfu/mL. As to the method: Culture tubes were prepared with aliquots of 2.0 mL of RPMI1640 (containing Q, MOPS, pH = 7, no phenol red). The tubes were sealed to prevent evaporation and were equilibrated with the incubation chamber overnight, at 30 °C. On the day of the experiment, overnight yeast cultures in YPD were washed twice with DD-H2O and resuspended in DD-H2O. The OD600 of the cell suspension was adjusted to 4.6, ≈2 × 10^6 cfu/mL, in DD-H2O. A 200 μL aliquot of adjusted cell suspension was added systematically to each tube, followed by 200 μL sampling for the 0 h time point. Immediately after sampling, the antifungal compounds were added, and the tubes were placed in the incubator at 30 °C with shaking at 225 rpm. The sampled aliquot was transferred to a 96-well plate and serially diluted six times, 10-fold each time. The resulting cell suspensions were spotted onto YPD plates in a grid pattern of 5 μL per spot. Subsequently, tubes were briefly removed from the incubator, and 100 μL aliquots were sampled at 2, 4, 6, and 8 h time points. Cells were counted on the YPD plates at either 24 or 48 h after plate spotting, depending on when the colonies were countable. Images of the YPD plates were recorded on the Bio-Rad Gel imager after 48 h of incubation at 30 °C. […] 2 C = number of colonies counted, Df = dilution factor = 10^n–1, n = column that the cells were counted, and Vf = volume factor = 1/0.005 mL.

In experiment [12] the test system is C. neoformans in macrophage J774 cells. The experiment is described as follows: Macrophage killing assay. It is filed as cell-based, Cryptococcus neoformans / murine macrophage. Conditions: yeast pretreated at sub-MIC for 30 min; 2 or 4 h coincubation. As to the method: Macrophage killing assay was carried out in accordance with previously reported protocols.[23],[69] After the cell line was activated from −80 °C stock and passaged several times, the cells were washed and resuspended in fresh DMEM + FBS at 1 × 10^5 cell/mL. Each well in a 3 column by 6 row grid in a 48-well plate was charged with 0.5 mL of cell suspension, approximately 50,000 cell/well. Macrophages were grown ON at 37 °C in a tissue culture incubator and were further activated with LPS. Yeast cells were grown ON using standard conditions. Fungal cells were washed twice with H2O, resuspended in PBS, and adjusted to 2.4 × 10^6 cfu/mL in 5 mL RPMI. […] Treated cells were transferred to a 1.5 mL Eppendorf tube, pelleted, and resuspended in 100 μL of 20% mouse compliment in PBS for opsonization. Prior to inoculating the wells with yeast cells for coincubation, the opsonized cells were diluted by an additional 20% with PBS. Each well was inoculated with 10 μL of cell suspension. Cocultures were prepared using three technical replicates. The 48-well plates were inoculated about 30 min apart to allow time to process each plate during the experiment. After 2 h of coincubation, each well was washed three times with 200 μL of warm DMEM + penstrep. […]

The mark [13] stands for this setting: Cryptococcus neoformans, H99, compound alone, RPMI1640, 37 °C, 48 h, read-out: MIC.
The mark [14] stands for this setting: Cryptococcus neoformans, MRL862, compound alone, RPMI1640, 37 °C, 48 h, read-out: MIC.
[15] abbreviates: compound alone, RPMI1640, 37 °C.
Setting [16] is: Table S1, unit and conditions not given (MICs elsewhere in μg/mL).

As for `C[C@@H]1[C@H](O)[C@@H](C)/C=C/C=C/C=C/C=C/C=C/C=C/C=C/[C@H](O[C@@H]2O[C@H](C)[C@@H](O)[C@H](N)[C@@H]2O)C[C@@H]2O[C@](O)(C[C@@H](O)C[C@@H](O)[C@H](O)CC[C@@H](O)C[C@@H](O)CC(=O)O[C@H]1C)C[C@H](O)[C@H]2C(=O)O` [AMB, amphotericin B], the MIC worked out at 0.25 µg/mL (≈ 0.271 µM) in [1] (Cryptococcus neoformans); 0.5 µg/mL (≈ 0.541 µM) in [2] (Cryptococcus neoformans); 0.25 µg/mL (≈ 0.271 µM) in experiment [3] (Cryptococcus neoformans); 0.5 µg/mL (≈ 0.541 µM) in [4] (Cryptococcus neoformans); 0.125 µg/mL (≈ 0.135 µM) in [5] (Cryptococcus neoformans, MRL862, 48 h); 0.5 µg/mL (≈ 0.541 µM) in [6] (Cryptococcus neoformans). The MIC in experiment [7] (setting [13]), in [8] (Cryptococcus neoformans) and in experiment [9] (Cryptococcus neoformans) was 0.5 µg/mL (≈ 0.541 µM) in each case.
Consider `CC[C@H](C)C[C@H](C)CCCCCCCCC(=O)N[C@H]1C[C@@H](O)[C@@H](NCCN)NC(=O)[C@@H]2[C@@H](O)CCN2C(=O)[C@H]([C@H](O)CCN)NC(=O)[C@H]([C@H](O)[C@@H](O)c2ccc(O)cc2)NC(=O)[C@@H]2C[C@@H](O)CN2C(=O)[C@H]([C@@H](C)O)NC1=O` [CAS, caspofungin], for which the MIC was 16 µg/mL (≈ 14.6 µM) in experiment [1] (Cryptococcus neoformans); 16 µg/mL (≈ 14.6 µM) in experiment [2] (Cryptococcus neoformans); 16 µg/mL (≈ 14.6 µM) in experiment [3] (Cryptococcus neoformans); 16 µg/mL (≈ 14.6 µM) in experiment [4] (Cryptococcus neoformans); 16 µg/mL (≈ 14.6 µM) in experiment [5] (setting [14]); 8 µg/mL (≈ 7.32 µM) in experiment [6] (Cryptococcus neoformans). The MIC was 16 µg/mL (≈ 14.6 µM) in [7] (setting [13]), 16 µg/mL (≈ 14.6 µM) in experiment [8] (Cryptococcus neoformans), 4 µg/mL (≈ 3.66 µM) in [9] (Cryptococcus neoformans) and 16 µg/mL (≈ 14.6 µM) in [10].
Consider `OC(Cn1cncn1)(Cn1cncn1)c1ccc(F)cc1F` [FLC, fluconazole], for which the MIC in [1] (Cryptococcus neoformans) worked out at 2 µg/mL (≈ 6.53 µM); in experiment [2] (Cryptococcus neoformans), 2 µg/mL (≈ 6.53 µM); in experiment [3] (Cryptococcus neoformans), 2 µg/mL (≈ 6.53 µM); in experiment [4] (Cryptococcus neoformans) it was 0.25 µg/mL (≈ 0.816 µM); in experiment [5] (setting [14]), 32 µg/mL (≈ 104 µM); in experiment [6] (Cryptococcus neoformans), 0.5 µg/mL (≈ 1.63 µM). Besides, the MIC in experiment [7] (setting [13]) was 2 µg/mL (≈ 6.53 µM); in experiment [8] (Cryptococcus neoformans), 2 µg/mL (≈ 6.53 µM); in [9] (Cryptococcus neoformans), 0.125 µg/mL (≈ 0.408 µM). In addition, in [5] (RPMI1640, 37 °C, 48 h), the “MIC relative to wild-type strain H99 (higher)” value amounted to 16 fold.
As for `CCC(C)n1ncn(-c2ccc(N3CCN(c4ccc(OCC5COC(Cn6cncn6)(c6ccc(Cl)cc6Cl)O5)cc4)CC3)cc2)c1=O` (stereo not drawn) [ITR, itraconazole], the MIC in experiment [1] (Cryptococcus neoformans) amounted to 0.125 µg/mL (≈ 0.177 µM); in [2] (Cryptococcus neoformans) it was 0.062 µg/mL (≈ 0.0879 µM); in experiment [3] (Cryptococcus neoformans), 0.062 µg/mL (≈ 0.0879 µM); in experiment [4] (Cryptococcus neoformans) it was 0.016 µg/mL (≈ 0.0227 µM); in experiment [5] (setting [14]), 0.031 µg/mL (≈ 0.0439 µM); in [6] (Cryptococcus neoformans), 0.5 µg/mL (≈ 0.709 µM). The MIC turned out to be 0.125 µg/mL (≈ 0.177 µM) in experiment [7] (Cryptococcus neoformans, H99, 48 h); 0.062 µg/mL (≈ 0.0879 µM) in experiment [8] (Cryptococcus neoformans); 0.002 µg/mL (≈ 0.00283 µM) in experiment [9] (Cryptococcus neoformans).
Consider `CCCCCCCCCCCCCC(=O)N[C@@H](Cc1c[nH]c2ccccc12)C(=O)NCC(=O)NCC(=O)N[C@H](C(=O)N[C@@H](CCCN)C(=O)N[C@@H](CCCN)C(=O)N[C@@H](CC(N)=O)C(=O)N[C@@H](Cc1ccc(O)cc1)C(=O)N[C@@H](C)C(N)=O)[C@@H](C)CC` [KKOO-NH2] (Myristoyl-WGGI[Orn][Orn]NYA-NH2), for which the MIC in experiment [1] (setting [15]) came to 4 µg/mL (≈ 3.29 µM); in experiment [2] (setting [15]), 4 µg/mL (≈ 3.29 µM); in experiment [3] (setting [15]), 4 µg/mL (≈ 3.29 µM); in experiment [4] (setting [15]), 4 µg/mL (≈ 3.29 µM); in experiment [5] (MRL862, 48 h), 8 µg/mL (≈ 6.57 µM); in experiment [6] (setting [15]), 4 µg/mL (≈ 3.29 µM). The MIC came out at 8 µg/mL (≈ 6.57 µM) in experiment [7] (H99, 48 h); 4 µg/mL (≈ 3.29 µM) in experiment [8] (setting [15]); 4 µg/mL (≈ 3.29 µM) in [9] (setting [15]). Also, the figures for the “MIC (SAR screen peptides)” value in experiment [7] (setting [16]) and in experiment [9] (setting [16]) were 8 and 4, respectively. The molecule also showed a Cryptococcus cells killed in experiment [11] above 99.9%. The “fungal proliferation inside macrophages vs untreated control” value in experiment [12] is reported as “No statistically significant difference”.
